According to patent US20220395553A1, “CXCR4 ANTAGONIST PEPTIDES” (COHBAR, INC., priority 2019, published 2022):
Square brackets hold non-standard residues; d marks the D form. Ends that are not written are not given here. Peptide text beside a SMILES is read from it.

Experiments:
[1] = test system: B16F10, mouse melanoma cell line; test: Tumor growth in B16F10 syngeneic mouse cancer model; format: in vivo; conditions: peptide 10 mg/kg QD subcutaneous, temozolomide 50 mg/kg TIW oral gavage; for Mean (SEM) Percent Reduction in Tumor Volume vs Control: Day 11, relative to vehicle control; for Mean (SEM) Tumor Volume on Day 11: female C57Bl/6 mice, 8-10 animals per arm
Procedure: The effect of the peptides on tumor growth can be assessed by monitoring tumor volume in a syngeneic mouse cancer model, such as B16F10, mouse melanoma cell line. The study was performed by HD Biosciences/WuXi (San Diego, Calif.). B16F10 cells were expanded in culture for a maximum of five passages prior to implantation, until growing exponentially when harvested. On Day 0, B16F10 cells (0.2×10^6 cells in […] serum free media; >95% viable tumor cells) were implanted into the right hind flank of female C57Bl/6 mice. When a mean tumor volume of approximately 100 mm^3 (range 75-125 mm^3) was reached, tumor-bearing animals were randomized and treatments were initiated on the same day. Test peptides were resuspended in phosphate buffered saline (PBS) and administered once daily (QD) by subcutaneous injection at 10 mg/kg in 5.0 ml/kg vehicle. Vehicle (PBS) was administered QD by intraperitoneal injection in 5 ml/kg. Temozolomide was administered three times per week (TIW) by oral gavage at 50 mg/kg in 5.0 ml/kg vehicle. Animals were inspected daily over the course of 11 days for abnormalities. Tumor volumes were determined by calliper measurements twice per week and calculated according to the formula: V (mm^3)=W^2×L/2 (L=length and W=the perpendicular width of the tumor, L>W). Data are presented as the mean (SEM) of 8-10 animals per arm for tumor volume on Day 11 and percent decrease in tumor volume relative to vehicle control treatment. Treatment with a combination of test peptide and temozolomide produced a greater reduction in tumor volume compared to either vehicle control treatment or treatment with temozolomide alone.

3T3-L1 Mouse Adipocytes = test: Free fatty acid levels in cultured mouse adipocytes; format: cell-based; conditions: insulin 100 nM
Procedure: The effect of the peptides on fatty acid metabolism can be assessed using an assay of free fatty acid levels in cultured cells such as mouse adipocytes. Peptides were initially prepared as 10 mM stock in DMSO and used at a final concentration of 10 μM (0.1% DMSO). […] Mouse 3T3-L1 cells purchased from ZenBio were seeded at 3,000 cells per well in 96-well plates in Pre-adipocyte Medium (Zen-Bio) and grown to confluence at 37° C. in a humidified atmosphere of 5% CO2/95% air. Two days after confluence, cells were placed in Adipocyte Differentiation Medium (Zen-Bio) and cultured for three additional days at 37° C. in a humidified atmosphere of 5% CO2/95% air. The culture media was then replaced with Adipocyte Maintenance Medium (Zen-Bio) and the cells maintained for an additional 9-12 days at 37° C. in a humidified atmosphere of 5% CO2/95% air with partial medium replacement every other day. Following 12-15 days of differentiation, test peptides were added at a final concentration of 10 μM in 0.1% DMSO and incubated for 20-22 hours in Adipocyte Maintenance Medium at 37° C. in a humidified atmosphere of 5% CO2/95% air. After 20-22 hours, 1 nM isoproterenol was added to all wells except untreated controls and test peptides were replenished. Insulin at 100 nM was added to control wells. Cells were incubated for 3 hours in Assay Buffer (Zen-Bio) at 37° C. in a humidified atmosphere of 5% CO2/95% air. Free fatty acid concentrations in the media were determined using a Free Fatty Acid Assay kit (Zen-Bio) according to the manufacturer's instructions using a Cytation 3 plate reader at 540 nm (BioTek, Winooski, Vt.). Absorbance values were corrected for untreated background and expressed relative to isoproterenol treated cells. Treatment with isoproterenol (1 nM) alone was used as the free fatty acid level stimulatory control. The relative standard deviation of the isoproterenol control was <10%. […] Free fatty acid levels for insulin (100 nM) treatment were <5% of the isoproterenol control value.

Jurkat cells = test: CXCL12 mediated cell migration, Jurkat cells; format: cell-based, human; conditions: 1.1 μM test article, 100 ng/ml CXCL12, 1 hour
Procedure: The assay was performed following a protocol similar to that described by Peng, et al., Mol Cancer Ther., 14480-90 (2015), incorporated herein by reference. Peptides were initially prepared as 1 mM stock in H2O and tested at a final concentration of 1.1 μM. […] Jurkat cells were resuspended in serum free media (RPMI+GlutaMax; Gibco/Thermo Fisher Scientific; Gaithersburg, Md.) containing 0.5% bovine serum albumin at density of 5×10^6 cells/ml. […] Cells (250,000 cells in 50 μl) supplemented with the appropriate treatments were seeded on to the upper chamber of a 96-well 5 μm HTS Transwell filter insert (Corning/Costar; Tewksbury, Mass.). […] Filter inserts were immediately placed on top of 96-well receiver trays and placed at 37° C. in a humidified atmosphere of 5% CO2/95% air for 1 hour. Following the 1 hour incubation period the filter inserts were carefully removed and the migration of cells across the filter into the bottom chamber (receiver wells) was determined by measuring ATP levels using Cell TiterGlo 2.0, according to manufacturer's instructions (Promega; Madison, Wis.); luminescence was measured using a Cytation 3 plate reader (BioTek; Winooski, Vt.).

human CXCR4 [2] = target: T1, human CXCR4 (Homo sapiens, UniProt P61073); test: IC50 for inhibition of CXCR4 activation, β-Arrestin recruitment (Example 22); format: cell-based; design: host or cells: C2C12 (mouse myoblast) CXCR4 β-Arrestin PathHunter cell line
T1 sequence (P61073 whole entry, the tested form may be a part): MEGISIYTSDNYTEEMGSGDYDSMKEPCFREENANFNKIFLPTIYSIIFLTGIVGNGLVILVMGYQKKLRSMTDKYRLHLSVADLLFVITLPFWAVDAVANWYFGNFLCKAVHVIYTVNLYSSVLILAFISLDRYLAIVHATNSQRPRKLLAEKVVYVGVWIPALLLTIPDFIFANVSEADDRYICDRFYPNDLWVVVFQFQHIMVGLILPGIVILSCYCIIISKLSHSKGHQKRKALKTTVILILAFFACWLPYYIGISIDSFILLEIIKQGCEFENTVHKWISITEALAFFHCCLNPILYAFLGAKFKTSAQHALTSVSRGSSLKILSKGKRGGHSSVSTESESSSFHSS
Outline: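 C2C12 cells co-expressing ProLink-tagged human CXCR4 and Enzyme Acceptor-tagged β-arrestin (PathHunter). Peptides tested in 10-point, 3-fold dilutions from 1 μM (1 μM–0.05 nM). Recruitment read by chemiluminescent enzyme-fragment complementation after 90 min incubation.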

[3] = test system: CXCR4/CXCL12 induced p-MEK; test: CXCR4/CXCL12 induced p-MEK in Jurkat cells (ELISA); format: cell-based, human; conditions: 5 nM CXCL12, 5 min
Outline: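 Jurkat cells in RPMI+GlutaMax containing 10% FBS and 1% penicillin/streptomycin, fresh or conditioned, were resuspended at 2×10^6 cells/ml and […] aliquots placed in tubes. After a 5 min stimulation they were pelleted, rinsed with HBSS and lysed with PMSF and protease/phosphatase inhibitors. Phospho-MEK1 (Ser217/221) was quantified by sandwich ELISA with absorbance read at 450 nm.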

human CXCR4 [4] = target: T1, human CXCR4; test: IC50 for CXCR4/CXCL12 ligand binding, HTRF format (Example 24); design: host or cells: HEK293 (Tag-lite CXCR4 cells, frozen aliquots, transient expression)
Procedure: Peptides were initially prepared as 1 mM stock in H2O. […] Following the manufacture's protocol, a frozen aliquot of Tag-lite CXCR4 cells was thawed and immediately seeded onto 384-well plates in TLB. […] The plates were covered in aluminum foil and left at room temperature for 3 hours. Following the 3 hour incubation period, the plates were removed from the incubator and fluorescence measured using a Cytation 1 plate reader using a HTRF filter cube ([…]; BioTek; Winooski, Vt.).

human CXCR4 [5] = target: T1, human CXCR4; test: CXCR4/CXCL12 binding, HTRF format, single concentration (Example 23); design: host or cells: HEK293 (Tag-lite CXCR4 cells, frozen aliquots, transient expression); conditions: 15 nM CXCR4R fluorescent probe, 3 hours, HEK293 Tag-lite CXCR4 cells
Outline: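 Tag-lite CXCR4 cells were exposed to peptide at 400 nM final with 15 nM (EC80) fluorescent CXCR4 probe for 3 h at room temperature. HTRF was read, and the 665/620 nm ratio ×10,000 measured probe bound to terbium-labelled receptor.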

Q: For “LERYHHSVRSSLRPYTK (LERYHHSVRSSLRPYTK-NH2) [SEQ ID NO: 4]”, which “Mean (SEM) Percent Reduction in Tumor Volume vs Control” value [1] is on record?
A: 14.9%

Q: What about the “Mean (SEM) Tumor Volume on Day 11” value [1] of the same compound?
A: 1620 mm^3

Q: Which “Free fatty acid levels, % of isoproterenol control value” (3T3-L1 Mouse Adipocytes) does the source give for Insulin [reference compound] here?
A: < 5%

Q: Which results are given for `Cn1nnc2c(C(N)=O)ncn2c1=O` [Temozolomide, reference compound]?
A: Mean (SEM) Percent Reduction in Tumor Volume vs Control [1]: 37.9%; Mean (SEM) Tumor Volume on Day 11 [1]: 1190 mm^3

Q: `CC(C)C[C@H](NC(=O)[C@H](CO)NC(=O)[C@H](CO)NC(=O)[C@H](CCCNC(=N)N)NC(=O)[C@@H](NC(=O)[C@@H](NC(=O)[C@H](Cc1c[nH]cn1)NC(=O)[C@H](Cc1c[nH]cn1)NC(=O)[C@H](Cc1ccc(O)cc1)NC(=O)[C@H](CCCNC(=N)N)NC(=O)[C@H](CCC(=O)O)NC(=O)[C@@H](N)CC(C)C)[C@@H](C)O)C(C)C)C(=O)N[C@@H](CCCNC(=N)N)C(=O)N1CCC[C@H]1C(=O)N[C@@H](Cc1ccc(O)cc1)C(=O)N[C@H](C(=O)N[C@@H](CCCCN)C(=O)O)[C@@H](C)O` [compound 39] (H-LERYHHTVRSSLRPYTK-OH; N-terminus and C-terminus assumed) was tested. Which “Percent Inhibition of CXCL12 Mediated Migration (1.1 μM Test Article)” value (shortened to “Percent Inhibition … (1.1 μM Test Article)”) (Jurkat cells) did it give?
A: 77%

Q: What about the IC50 (human CXCR4 [2]) of the same compound?
A: 3 nM

Q: And the “Percent Inhibition of CXCR4/CXCL12 Induced p-MEK (100 nM Test Article)” value [3]?
A: 38%

Q: And the “Percent Inhibition of CXCR4/CXCL12 Induced p-MEK (1 μM Test Article)” value [3]?
A: 95%

Q: What about the IC50 (human CXCR4 [4]) of the same compound?
A: 8 nM

Q: What about the “Percent Inhibition of CXCR4/CXCL12 Binding (400 nM peptide)” value (human CXCR4 [5]) of the same compound?
A: 87%

Q: “LERYHHS(dA)RSSLRPYT (LERYHHS[dA]RSSLRPYT) [SEQ ID NO: 5]” was tested. Which “Mean (SEM) Percent Reduction in Tumor Volume vs Control” value [1] did it give?
A: 7.2%

Q: And the “Mean (SEM) Tumor Volume on Day 11” value [1]?
A: 1770 mm^3

Q: Which “Percent Inhibition … (1.1 μM Test Article)” value (Jurkat cells) does the source give for `CC(C)C[C@H](NC(=O)[C@H](CO)NC(=O)[C@H](CO)NC(=O)[C@H](CCCNC(=N)N)NC(=O)[C@@H](NC(=O)[C@H](CO)NC(=O)[C@H](Cc1c[nH]cn1)NC(=O)[C@H](Cc1c[nH]cn1)NC(=O)[C@H](Cc1ccc(O)cc1)NC(=O)[C@H](CCCNC(=N)N)NC(=O)[C@H](CCCNC(=N)N)NC(=O)[C@@H](N)CC(C)C)C(C)C)C(=O)N[C@@H](CCCNC(=N)N)C(=O)N1CCC[C@H]1C(=O)N[C@@H](Cc1ccc(O)cc1)C(=O)N[C@H](C(=O)N[C@@H](CCCCN)C(N)=O)[C@@H](C)O` [compound 16] (H-LRRYHHSVRSSLRPYTK-NH2; N-terminus assumed) here?
A: 21%

Q: And the IC50 (human CXCR4 [2])?
A: 8 nM

Q: And the “Percent Inhibition of CXCR4/CXCL12 Induced p-MEK (100 nM Test Article)” value [3]?
A: 74%

Q: What about the “Percent Inhibition of CXCR4/CXCL12 Induced p-MEK (1 μM Test Article)” value [3] of the same compound?
A: 100%

Q: And the IC50 (human CXCR4 [4])?
A: 573 nM

Q: And the “Percent Inhibition of CXCR4/CXCL12 Binding (400 nM peptide)” value (human CXCR4 [5])?
A: −2%

Q: How did the “Percent Inhibition … (1.1 μM Test Article)” value (Jurkat cells) turn out when `CC(C)C[C@H](NC(=O)[C@H](CO)NC(=O)[C@H](CO)NC(=O)[C@H](CCCNC(=N)N)NC(=O)[C@@H](NC(=O)[C@H](CO)NC(=O)[C@H](Cc1c[nH]cn1)NC(=O)[C@H](Cc1c[nH]cn1)NC(=O)[C@H](Cc1ccc(O)cc1)NC(=O)[C@H](CCCNC(=N)N)NC(=O)[C@H](CCC(=O)O)NC(=O)[C@@H](N)CC(C)C)C(C)C)C(=O)N[C@@H](CCCNC(=N)N)C(=O)N1CCC[C@H]1C(=O)N[C@@H](Cc1ccc(O)cc1)C(=O)N[C@H](C(=O)N[C@@H](CCCCN)C(N)=O)[C@@H](C)O` [compound 56] (H-LERYHHSVRSSLRPYTK-NH2; N-terminus assumed) was run?
A: 83%

Q: And the IC50 (human CXCR4 [2])?
A: 11 nM

Q: What about the “Percent Inhibition of CXCR4/CXCL12 Induced p-MEK (100 nM Test Article)” value [3] of the same compound?
A: 69%

Q: And the “Percent Inhibition of CXCR4/CXCL12 Induced p-MEK (1 μM Test Article)” value [3]?
A: 98%

Q: And the IC50 (human CXCR4 [4])?
A: 5 nM

Q: And the “Percent Inhibition of CXCR4/CXCL12 Binding (400 nM peptide)” value (human CXCR4 [5])?
A: 79%

Q: Which results are given for `CC(C)C[C@H](NC(=O)[C@H](CO)NC(=O)[C@H](CO)NC(=O)[C@H](CCCNC(=N)N)NC(=O)[C@@H](NC(=O)[C@H](CO)NC(=O)[C@H](Cc1c[nH]cn1)NC(=O)[C@H](Cc1c[nH]cn1)NC(=O)[C@H](Cc1ccc(O)cc1)NC(=O)[C@H](CCCNC(=N)N)NC(=O)[C@H](CCC(=O)O)NC(=O)[C@@H](N)CC(C)C)C(C)C)C(=O)N[C@@H](CCCNC(=N)N)C(=O)N1CCC[C@H]1C(=O)N[C@@H](Cc1ccccc1)C(=O)N[C@H](C(=O)N[C@@H](CCCCN)C(=O)O)[C@@H](C)O` [compound 60] (H-LERYHHSVRSSLRPFTK-OH; N-terminus and C-terminus assumed)?
A: Percent Inhibition of CXCL12 Mediated Migration (1.1 μM Test Article) (Jurkat cells): 33%; IC50 (human CXCR4 [2]): 4 nM; Percent Inhibition of CXCR4/CXCL12 Induced p-MEK (100 nM Test Article) [3]: 34%; Percent Inhibition of CXCR4/CXCL12 Induced p-MEK (1 μM Test Article) [3]: 82%; IC50 (human CXCR4 [4]): 17 nM; Percent Inhibition of CXCR4/CXCL12 Binding (400 nM peptide) (human CXCR4 [5]): 60%
